# Values of other authors in patent publication US4795645A, “Sustained release tablets of theophylline” (Yissum Research and Development, priority 1986, dated 1989).
# Settings: from oral solutions and plain uncoated tablets
smiles,measurement,value
"Cn1c(=O)c2[nH]cnc2n(C)c1=O [Theophylline, theophylline]",absorption,"rapidly, consistently and completely absorbed"
